# Laboratory results: PMC11240878, “Synthesis, enzyme inhibition assay, and molecular modeling study of novel pyrazolines linked to 4-methylsulfonylphenyl scaffold: antitumor activity and cell cycle analysis” (RSC Advances, 2024)
# How the values were obtained:
# KM12 = test: NCI single-dose GI%, colon; format: cell-based, human; details: 10.0 μM in one dose
# LOX IMVI = test: NCI single-dose GI%, melanoma; format: cell-based, human; details: 10.0 μM in one dose
# HER2 = HER2 (Homo sapiens, UniProt P04626); test: HER2 tyrosine kinase inhibition assay
# MDA-MB-468 = test: NCI single-dose GI%, breast; format: cell-based, human; details: MDA-MB-468, breast; 10.0 μM in one dose
# SNB-75 = test: NCI single-dose GI%, CNS; format: cell-based, human; details: SNB-75, CNS; 10.0 μM in one dose
# OVCAR-3 = test: NCI single-dose GI%, ovarian; format: cell-based, human; details: OVCAR-3, ovarian; 10.0 μM in one dose
# MCF7 = test: NCI single-dose GI%, breast; format: cell-based, human; details: 10.0 μM in one dose
# SNB-19 = test: NCI single-dose GI%, CNS; format: cell-based, human; details: SNB-19, CNS; 10.0 μM in one dose
# SF-268 = test: NCI single-dose GI%, CNS; format: cell-based, human; details: SF-268, CNS; 10.0 μM in one dose
# 786-0 = test: NCI single-dose GI%, renal; format: cell-based, human; details: 786-0, renal; 10.0 μM in one dose
# HCT-116 = test: NCI single-dose GI%, colon; format: cell-based, human; details: HCT-116, colon; 10.0 μM in one dose
# MALME-3M = test: NCI single-dose GI%, melanoma; format: cell-based, human; details: 10.0 μM in one dose
# NCI/ADR-RES = test: NCI single-dose GI%, ovarian; format: cell-based, human; details: 10.0 μM in one dose
# SF-295 = test: NCI single-dose GI%, CNS; format: cell-based, human; details: SF-295, CNS; 10.0 μM in one dose
# A498 = test: NCI single-dose GI%, renal; format: cell-based, human; details: 10.0 μM in one dose
# OVCAR-4 = test: NCI single-dose GI%, ovarian; format: cell-based, human; details: OVCAR-4, ovarian; 10.0 μM in one dose
# U251 = test: NCI single-dose GI%, CNS; format: cell-based, human; details: 10.0 μM in one dose
# SK-MEL-28 = test: NCI single-dose GI%, melanoma; format: cell-based, human; details: SK-MEL-28, melanoma; 10.0 μM in one dose
# Bax in MDA-MB-231 cells = test: Apoptotic markers assay, Bax; format: cell-based, human; details: at IC50 concentration, vs untreated control
# Experimental: The levels of Bax (apoptosis promoter), Bcl-2 (apoptosis inhibitor), and apoptosis coordination enzymes (caspase-3 and caspase-9) were measured.[78–80]
# Apoptotic markers experiment was performed according to reported procedure using MDA-MB-231 cancer cell line.[78–80]
# MDA-MB-231/ATCC = test: NCI single-dose GI%, breast; format: cell-based, human; details: 10.0 μM in one dose
# NCI-H23 = test: NCI single-dose GI%, NSC lung; format: cell-based, human; details: 10.0 μM in one dose
# UACC-62 = test: NCI single-dose GI%, melanoma; format: cell-based, human; details: UACC-62, melanoma; 10.0 μM in one dose
# HCT-15 = test: NCI single-dose GI%, colon; format: cell-based, human; details: HCT-15, colon; 10.0 μM in one dose
# HS 578T = test: NCI single-dose GI%, breast; format: cell-based, human; details: 10.0 μM in one dose
# M14 = test: NCI single-dose GI%, melanoma; format: cell-based, human; details: 10.0 μM in one dose
# COLO 205 = test: NCI single-dose GI%, colon; format: cell-based, human; details: COLO 205, colon; 10.0 μM in one dose
# NCI-H522 = test: NCI single-dose GI%, NSC lung; format: cell-based, human; details: 10.0 μM in one dose
# MDA-MB-435 = test: NCI single-dose GI%, melanoma; format: cell-based, human; details: MDA-MB-435, melanoma; 10.0 μM in one dose
# IGROV1 = test: NCI single-dose GI%, ovarian; format: cell-based, human; details: 10.0 μM in one dose
# NCI-H322M = test: NCI single-dose GI%, NSC lung; format: cell-based, human; details: 10.0 μM in one dose
# ACHN = test: NCI single-dose GI%, renal; format: cell-based, human; details: 10.0 μM in one dose
# HT29 = test: NCI single-dose GI%, colon; format: cell-based, human; details: 10.0 μM in one dose
# HL-60(TB) = test: NCI single-dose GI%, leukemia; format: cell-based, human; details: 10.0 μM in one dose
# MOLT-4 = test: NCI single-dose GI%, leukemia; format: cell-based, human; details: MOLT-4, leukemia; 10.0 μM in one dose
# SR = test: NCI single-dose GI%, leukemia; format: cell-based, human; details: 10.0 μM in one dose
# SK-MEL-5 = test: NCI single-dose GI%, melanoma; format: cell-based, human; details: SK-MEL-5, melanoma; 10.0 μM in one dose
# SK-MEL-2 = test: NCI single-dose GI%, melanoma; format: cell-based, human; details: SK-MEL-2, melanoma; 10.0 μM in one dose
# NCI-H460 = test: NCI single-dose GI%, NSC lung; format: cell-based, human; details: 10.0 μM in one dose
# [1] = system: breast adenocarcinoma MCF-7; details: human, 48 h
# RPMI-8226 = test: NCI single-dose GI%, leukemia; format: cell-based, human; details: RPMI-8226, leukemia; 10.0 μM in one dose
# TK-10 = test: NCI single-dose GI%, renal; format: cell-based, human; details: TK-10, renal; 10.0 μM in one dose
# SN12C = test: NCI single-dose GI%, renal; format: cell-based, human; details: 10.0 μM in one dose
# OVCAR-8 = test: NCI single-dose GI%, ovarian; format: cell-based, human; details: OVCAR-8, ovarian; 10.0 μM in one dose
# CCRF-CEM = test: NCI single-dose GI%, leukemia; format: cell-based, human; details: 10.0 μM in one dose
# Chain of HER2 (P04626 23-1255): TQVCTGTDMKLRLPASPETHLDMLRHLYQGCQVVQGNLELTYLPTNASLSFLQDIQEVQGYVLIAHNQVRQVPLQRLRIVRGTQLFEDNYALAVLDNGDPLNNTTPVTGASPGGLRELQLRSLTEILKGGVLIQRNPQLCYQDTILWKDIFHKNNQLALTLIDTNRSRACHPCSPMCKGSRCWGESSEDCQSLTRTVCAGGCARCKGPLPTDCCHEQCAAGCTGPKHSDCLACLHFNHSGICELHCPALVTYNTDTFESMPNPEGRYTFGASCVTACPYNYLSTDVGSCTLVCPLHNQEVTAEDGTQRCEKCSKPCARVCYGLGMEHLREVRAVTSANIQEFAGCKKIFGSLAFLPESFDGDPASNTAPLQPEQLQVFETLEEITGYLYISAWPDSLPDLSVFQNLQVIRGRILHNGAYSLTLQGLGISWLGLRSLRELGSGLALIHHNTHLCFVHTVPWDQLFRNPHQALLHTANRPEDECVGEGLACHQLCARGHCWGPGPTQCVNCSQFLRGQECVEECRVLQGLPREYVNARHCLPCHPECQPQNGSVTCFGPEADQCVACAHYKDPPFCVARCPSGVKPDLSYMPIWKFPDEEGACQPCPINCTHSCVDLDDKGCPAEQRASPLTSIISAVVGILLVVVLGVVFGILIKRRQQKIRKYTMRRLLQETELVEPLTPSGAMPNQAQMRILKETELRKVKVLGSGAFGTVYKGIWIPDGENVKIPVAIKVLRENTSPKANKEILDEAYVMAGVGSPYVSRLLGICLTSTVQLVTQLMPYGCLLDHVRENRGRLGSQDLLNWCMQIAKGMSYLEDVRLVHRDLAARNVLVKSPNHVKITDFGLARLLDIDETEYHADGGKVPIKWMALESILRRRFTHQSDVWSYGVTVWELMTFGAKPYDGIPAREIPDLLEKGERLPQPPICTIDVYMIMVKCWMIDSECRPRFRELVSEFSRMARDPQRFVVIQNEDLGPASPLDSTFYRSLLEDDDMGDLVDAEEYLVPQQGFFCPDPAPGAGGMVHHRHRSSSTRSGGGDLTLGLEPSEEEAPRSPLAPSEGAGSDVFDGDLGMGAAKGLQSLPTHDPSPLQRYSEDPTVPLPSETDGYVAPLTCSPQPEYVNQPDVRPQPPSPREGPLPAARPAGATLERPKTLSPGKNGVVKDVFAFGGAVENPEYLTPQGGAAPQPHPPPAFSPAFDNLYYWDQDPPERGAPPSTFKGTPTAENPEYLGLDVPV
compound,measurement,setting,value
"Cc1ccc(C2=NN(C(=O)c3ccc(S(C)(=O)=O)cc3)C(c3ccc(C)cc3)C2)cc1 (stereo not drawn) [Compound 18g, (3,5-Bis(4-tolyl)-4,5-dihydro-1H-pyrazol-1-yl)(4-(methylsulfonyl)phenyl)methanone]",GI%,KM12,37%
same,GI%,LOX IMVI,16%
same,IC50,HER2,496 ± 16 nM
same,GI%,MDA-MB-468,45%
same,GI%,SNB-75,30%
same,GI%,OVCAR-3,24%
same,GI%,MCF7,52%
same,GI%,SNB-19,13%
same,GI%,SF-268,11%
same,GI%,786-0,22%
same,GI%,HCT-116,37%
same,GI%,MALME-3M,14%
same,GI%,NCI/ADR-RES,38%
same,GI%,SF-295,30%
same,GI%,A498,16%
same,GI%,OVCAR-4,22%
same,GI%,U251,23%
same,GI%,SK-MEL-28,23%
same,Bax gene expression (fold change),Bax in MDA-MB-231 cells,3.054 fold change
same,GI%,MDA-MB-231/ATCC,14%
same,GI%,NCI-H23,12%
same,GI%,UACC-62,36%
same,GI%,HCT-15,45%
same,GI%,HS 578T,15%
same,GI%,M14,32%
same,GI%,COLO 205,33%
same,GI%,NCI-H522,73%
same,GI%,MDA-MB-435,76%
same,GI%,IGROV1,23%
same,GI%,NCI-H322M,12%
same,GI%,ACHN,12%
same,GI%,HT29,15%
same,GI%,HL-60(TB),66%
same,GI%,MOLT-4,56%
same,GI%,SR,50%
same,GI%,SK-MEL-5,38%
same,GI%,SK-MEL-2,33%
same,GI%,NCI-H460,17%
"CS(=O)(=O)c1ccc(C(=O)N2N=C(c3ccccc3)CC2c2ccccc2O)cc1 (stereo not drawn) [Compound 18h, (5-(2-Hydroxyphenyl)-3-phenyl-4,5-dihydro-1H-pyrazol-1-yl)(4-(methylsulfonyl)phenyl)methanone]",GI%,KM12,21%
same,GI%,LOX IMVI,34%
same,IC50,HER2,253 ± 8 nM
same,IC50,[1],12500 ± 550 nM
same,GI%,MDA-MB-468,17%
same,GI%,RPMI-8226,16%
same,GI%,OVCAR-3,35%
same,GI%,MCF7,22%
same,GI%,SNB-19,17%
same,GI%,SF-268,39%
same,GI%,786-0,33%
same,GI%,HCT-116,35%
same,GI%,MALME-3M,21%
same,GI%,NCI/ADR-RES,22%
same,GI%,SF-295,23%
same,GI%,OVCAR-4,22%
same,GI%,U251,48%
same,GI%,SK-MEL-28,11%
same,Bax gene expression (fold change),Bax in MDA-MB-231 cells,2.154 fold change
same,GI%,MDA-MB-231/ATCC,32%
same,GI%,NCI-H23,12%
same,GI%,UACC-62,12%
same,GI%,HCT-15,56%
same,GI%,M14,29%
same,GI%,COLO 205,20%
same,GI%,TK-10,25%
same,GI%,SN12C,17%
same,GI%,NCI-H522,55%
same,GI%,IGROV1,28%
same,GI%,NCI-H322M,48%
same,GI%,ACHN,25%
same,GI%,HT29,20%
same,GI%,OVCAR-8,41%
same,GI%,HL-60(TB),73%
same,GI%,CCRF-CEM,41%
same,GI%,MOLT-4,62%
same,GI%,SR,30%
same,GI%,SK-MEL-5,38%
same,GI%,SK-MEL-2,28%
same,GI%,NCI-H460,54%
"CS(=O)(=O)c1ccc(C(=O)N2N=C(c3ccccc3)CC2c2ccc(F)cc2)cc1 (stereo not drawn) [Compound 18c, (5-(4-Fluorophenyl)-3-phenyl-4,5-dihydro-1H-pyrazol-1-yl)(4-(methylsulfonyl)phenyl)methanone]",IC50,HER2,1430 ± 47 nM
same,GI%,SNB-75,14%
same,GI%,RPMI-8226,20%
same,GI%,MCF7,11%
same,GI%,U251,12%
same,Bax gene expression (fold change),Bax in MDA-MB-231 cells,4.413 fold change
same,GI%,COLO 205,22%
same,GI%,NCI-H522,48%
same,GI%,HT29,19%
same,GI%,OVCAR-8,20%
same,GI%,HL-60(TB),46%
same,GI%,MOLT-4,39%
